Measured values: US11016101B2, “Simplified nuclei analysis platform and biomarker matrix that supports genotoxic mode of action determinations” (Litron Laboratories, Ltd., priority 2013, dated 2021)
“Also recorded” adds a separate entry of the source. Where a name gives a salt, the structure may show the parent alone. Read-outs that look alike come from different tables or passages of the source.

Assays:
TK6 cells [1] = assay: In vitro micronucleus assay (In Vitro MICROFLOW kit)
Method: The in vitro micronucleus assay is a chromosomal damage test that is widely used to evaluate chemical and/or physical agents for clastogenic and aneugenic activity. […] Furthermore, in the usual conduct of the in vitro micronucleus assay, the discrimination of bona fide genotoxic activity as primarily occurring through a clastogenic or aneugenic mode of action is not readily obtained.
For these experiments, each of the 20 chemicals was tested over closely spaced concentrations, 6 replicate wells per concentration. Three wells were used for the micronucleus analyses, and three wells were used for the several nuclear biomarker assessments of the type described in Example 1. Other endpoints of cytotoxicity were considered, including […], ethidium monoazide bromide (EMA) positive events as an indicator of membrane integrity, tetramethylrhodamine ethyl ester (TMRE) negative cells as an assessment of mitochondrial membrane potential, and ATP levels (using luciferase) as an assessment of overall cell health in the sample. […] Further details are described under Statistical Analyses, as well as Example 4 below.
Those cytotoxicity evaluations were based on a conventional approach for assessing cytotoxicity in genotoxicity tests, that is, relative cell counts (which in the case of the flow cytometry-based In Vitro MICROFLOW® kit is accomplished by measuring nuclei to counting bead ratio or else nuclei to time ratio and expressing these values relative to the mean solvent control value). […] The remaining three wells per concentration were used to accomplish a series of nuclei biomarker readings according to the invention, as well as two other assessments of cytotoxicity—frequency of TMRE-negative cells and ATP levels (via Promega's CELL TITERGLO® kit).

TK6 cells [2] = format: cell-based
Method: This experiment highlights the ability of the invention to combine multiple nuclei-associated endpoints into one flow cytometric analysis. For this experiment, log-phase TK6 cells were treated with cisplatin over a wide range of concentrations and then incubated at 37° C. for 24 hours. Each concentration was studied in triplicate wells of a 96 well plate. After 24 hours, well contents were pipetted up and down several times to form homogenous suspensions, and 25 μl per well was added to wells of a new 96 well plate that contained 50 μl of working lysis/labeling/staining solution. This lysis/labeling/staining solution was comprised of 5 μl anti-γH2AX-Alexa® 488/ml, 1 μl anti-phospho-H3-PE/ml, 5 μl anti-cleaved PARP-Alexa® 647/ml, 5 μRNase/ml, […] Absolute Count Bead/50 μl

TK6 cells [3] = assay: Nuclei to bead ratio (relative cell count, cytotoxicity) by flow cytometry; format: cell-based
TK6 cells [4] = settings: human
TK6 cells [5] = assay: Cleaved PARP-positive nuclei by flow cytometry; format: cell-based; settings: for PARP-Positive Nuclei (Fold-Increase): 24-27 hours, relative to Control
Text: (§1) This chemical was also observed to affect cleaved PARP and Caspase 3 levels in nuclei, as evidenced by the higher values of cleaved PARP- and Caspase 3-positive nuclei relative to solvent control wells.

TK6 cells [6] = assay: Cleaved caspase 3-positive nuclei by flow cytometry; format: cell-based; settings: for Caspase 3-Positive Nuclei (Fold-Increase): 24-27 hours, relative to Control
Text: as §1

TK6 cells [7] = settings: human; remark: listed apart in the source
Method: The TK6 cells used in these experiments were from American Type Tissue Collection (ATCC) (Manassas, Va.). Cells were maintained in culture medium at 37° C., 5% CO2, and in a humid atmosphere. Cells were maintained between approximately 1×10^4 and 1×10^6 cells/ml for routine passage.
For these experiments, TK6 cells were treated with solvent (most often DMSO, 1% v/v) and a range of closely spaced test article concentrations. Treatments occurred in wells of a 96-well plate. At the start of treatment, cells were at 2×10^5/ml in a volume of 300 μl per well. Counting beads (PEAK FLOW™) were included in these cultures at a concentration of approximately 1 drop per 10 ml, and served as a means to derive relative nuclei to bead ratios (relative to solvent controls). Continuous treatment occurred for approximately 24 hrs, during which time plates were incubated at 37° C., 5% CO2, and in a humid atmosphere. Each test article concentration was studied in 3 to 6 replicate wells.
The γH2AX endpoint described herein was studied 4 and/or 24-27 hrs after start of treatment. Each of the remaining endpoints were studied at the conclusion of the treatment period, that is 24 to 27 hrs after initiation of exposure to test article (which for this cell line corresponds to approximately 1.5 to 2.0 population doubling times).
At the time of cell harvest (4 hrs and 24 to 27 hrs), cells were resuspended with gentle pipetting and 25 μl aliquots were transferred to wells of a 96 well plate containing 50 μl pre-aliquoted lysis solution.
After incubation at room temperate for at least 5 minutes, samples were analyzed with a dual-laser flow cytometer, 488 nm and 633 nm excitation (FACSCanto II, BD Biosciences, San Jose, Calif.). Instrumentation settings and data acquisition/analysis were controlled with Diva software v6.1.3. […] The BD Biosciences High Throughput Sampler (HTS) attachment was used to automatically analyze each of the samples in the 96 well plate(s). For the majority of these endpoints and experiments, the stop mode was configured such that each well was analyzed for 5 seconds, which usually represented sufficient time to acquire at least 500 NAD-positive nuclei.
Treatments occurred over a range of closely spaced concentrations.

[8] = TK6 cells, continuous exposure 24-27 hrs, In Vitro MICROFLOW kits
[9] = 24-27 hours after start of treatment

CC[C@@]1(O)C(=O)OCc2c1cc1n(c2=O)Cc2cc3ccccc3nc2-1 [camptothecin]
in vitro micronucleus results (TK6 cells [1]; [8]): positive

COc1ccc(C2=N[C@@H](c3ccc(Cl)cc3)[C@@H](c3ccc(Cl)cc3)N2C(=O)N2CCNC(=O)C2)c(OC(C)C)c1 [nutlin-3]
in vitro micronucleus results (TK6 cells [1]; [8]): positive

COC(=O)Nc1nc2ccccc2[nH]1 [carbendazim]
in vitro micronucleus results (TK6 cells [1]): positive

COc1cc([C@@H]2c3cc4c(cc3[C@@H](O[C@@H]3O[C@@H]5CO[C@@H](C)O[C@H]5[C@H](O)[C@H]3O)[C@H]3COC(=O)[C@H]23)OCO4)cc(OC)c1O [etoposide]
in vitro micronucleus results (TK6 cells [1]): positive

N.N.[Cl][Pt][Cl] [Cisplatin, cisplatin]
absolute and relative nuclei counts (effect in words) (TK6 cells [2]): reduced in a cisplatin concentration-dependent manner | anti-cleaved PARP positive chromatin (effect in words) (TK6 cells [2]): increased in a cisplatin concentration-dependent manner | anti-phospho-H3 positive nuclei (effect in words) (TK6 cells [2]): reduced in a cisplatin concentration-dependent manner | other changes to cell cycle (effect in words) (TK6 cells [2]): accumulation of cells in the G2/M phase | shift in anti-γH2AX-associated fluorescence (effect in words) (TK6 cells [2]): increased in a cisplatin concentration-dependent manner | in vitro micronucleus results (TK6 cells [1]): positive

O=c1[nH]cc(F)c(=O)[nH]1 [5-fluorouracil]
in vitro micronucleus results (TK6 cells [1]): positive

Nc1ccn([C@@H]2O[C@H](CO)[C@@H](O)[C@@H]2O)c(=O)n1 [arabinofuranosyl cytidine]
in vitro micronucleus results (TK6 cells [1]; [8]): positive

C[C@@]1(CO)[C@H](O)CC[C@@]2(C)[C@H]1CC[C@H]1C[C@@H]3C[C@@]12CC[C@]3(O)CO [aphidicoline]
in vitro micronucleus results (TK6 cells [1]; [8]): positive

NC(=O)NO [hydroxyurea]
in vitro micronucleus results (TK6 cells [1]): positive

[H]/N=C(/N)N/C(=N/[H])NCCc1ccccc1 [phenformin HCl]
in vitro micronucleus results (TK6 cells [1]; [8]): positive

tunicamycin
in vitro micronucleus results (TK6 cells [1]; [8]): positive

CC[C@]1(O)C[C@@H]2CN(CCc3c([nH]c4ccccc34)[C@@](C(=O)OC)(c3cc4c(cc3OC)N(C)[C@H]3[C@@](O)(C(=O)OC)[C@H](OC(C)=O)[C@]5(CC)C=CCN6CC[C@]43[C@@H]65)C2)C1 [Vinblastine, vinblastine]
nuclei to bead ratios (effect in words) (TK6 cells [3]): concentration-dependent reductions | Nuclei to Bead Ratio (% of Control) (TK6 cells [3]; human, 0.3 ng/ml): 98 % of Control | Nuclei to Bead Ratio (% of Control) (TK6 cells [3]; human, 0.4 ng/ml): 97 % of Control | Nuclei to Bead Ratio (% of Control) (TK6 cells [3]; human, 0.6 ng/ml): 86 % of Control | Nuclei to Bead Ratio (% of Control) (TK6 cells [3]; human, 0.8 ng/ml): 81 % of Control | Nuclei to Bead Ratio (% of Control) (TK6 cells [3]; human, 1.2 ng/ml): 71 % of Control | Nuclei to Bead Ratio (% of Control) (TK6 cells [3]; human, 1.6 ng/ml): 58 % of Control | Phospho-H3+ Nuclei (Fold-Increase) (TK6 cells [4]; 0.3 ng/ml): .86 Fold-Increase | Phospho-H3+ Nuclei (Fold-Increase) (TK6 cells [4]; 0.4 ng/ml): .86 Fold-Increase | Phospho-H3+ Nuclei (Fold-Increase) (TK6 cells [4]; 0.6 ng/ml): 1.23 Fold-Increase | Phospho-H3+ Nuclei (Fold-Increase) (TK6 cells [4]; 0.8 ng/ml): 2.11 Fold-Increase | Phospho-H3+ Nuclei (Fold-Increase) (TK6 cells [4]; 1.2 ng/ml): 4.85 Fold-Increase | Phospho-H3+ Nuclei (Fold-Increase) (TK6 cells [4]; 1.6 ng/ml): 5.41 Fold-Increase | in vitro micronucleus results (TK6 cells [1]): positive

N#CC(C#N)=NNc1cccc(Cl)c1 [CCCP, carbonyl cyanide m-chlorophenyl hydrazone]
Nuclei to Bead Ratio (% of Control) (TK6 cells [3]; CCCP 3.125 μM, TK6 cells, 24-27 hours after start of treatment): 79 % of Control | Nuclei to Bead Ratio (% of Control) (TK6 cells [3]; CCCP 4.6875 μM, TK6 cells, 24-27 hours after start of treatment): 69 % of Control | Nuclei to Bead Ratio (% of Control) (TK6 cells [3]; CCCP 6.25 μM, TK6 cells, 24-27 hours after start of treatment): 64 % of Control | Nuclei to Bead Ratio (% of Control) (TK6 cells [3]; CCCP 9.375 μM, TK6 cells, 24-27 hours after start of treatment): 59 % of Control | Nuclei to Bead Ratio (% of Control) (TK6 cells [3]; CCCP 12.5 μM, TK6 cells, 24-27 hours after start of treatment): 50 % of Control | nuclei to bead ratios (effect in words) (TK6 cells [3]; TK6 cells, range of closely spaced concentrations, 24-27 hours, indicative of fewer cells and therefore cytotoxicity): concentration-dependent reductions | cleaved PARP-positive nuclei relative to solvent control wells (effect in words) (TK6 cells [5]; [9]): higher values | PARP-Positive Nuclei (Fold-Increase) (TK6 cells [5]; CCCP 3.125 μM): 4.90 Fold-Increase | PARP-Positive Nuclei (Fold-Increase) (TK6 cells [5]; CCCP 4.6875 μM): 8.60 Fold-Increase | PARP-Positive Nuclei (Fold-Increase) (TK6 cells [5]; CCCP 6.25 μM): 12.1 Fold-Increase | PARP-Positive Nuclei (Fold-Increase) (TK6 cells [5]; CCCP 9.375 μM): 20.75 Fold-Increase | PARP-Positive Nuclei (Fold-Increase) (TK6 cells [5]; CCCP 12.5 μM): 34.45 Fold-Increase | cleaved Caspase 3-positive nuclei relative to solvent control (effect in words) (TK6 cells [6]; [9]): visibly increased; also recorded: higher values | Caspase 3-Positive Nuclei (Fold-Increase) (TK6 cells [6]; CCCP 3.125 μM): 2.63 Fold-Increase | Caspase 3-Positive Nuclei (Fold-Increase) (TK6 cells [6]; CCCP 4.6875 μM): 4.33 Fold-Increase | Caspase 3-Positive Nuclei (Fold-Increase) (TK6 cells [6]; CCCP 6.25 μM): 5.86 Fold-Increase | Caspase 3-Positive Nuclei (Fold-Increase) (TK6 cells [6]; CCCP 9.375 μM): 9.13 Fold-Increase | Caspase 3-Positive Nuclei (Fold-Increase) (TK6 cells [6]; CCCP 12.5 μM): 18.83 Fold-Increase | in vitro micronucleus results (TK6 cells [1]; [8]): positive

COS(C)(=O)=O [MMS, methyl methanesulfonate]
nuclei to bead ratios (effect in words) (TK6 cells [3]): concentration-dependent reductions | Nuclei to Bead Ratio (% of Control) (TK6 cells [3]; human, 2.344 μg/ml): 88 % of Control | Nuclei to Bead Ratio (% of Control) (TK6 cells [3]; human, 3.125 μg/ml): 87 % of Control | Nuclei to Bead Ratio (% of Control) (TK6 cells [3]; human, 4.6875 μg/ml): 83 % of Control | Nuclei to Bead Ratio (% of Control) (TK6 cells [3]; human, 6.25 μg/ml): 78 % of Control | Nuclei to Bead Ratio (% of Control) (TK6 cells [3]; human, 9.375 μg/ml): 64 % of Control | Nuclei to Bead Ratio (% of Control) (TK6 cells [3]; human, 12.5 μg/ml): 58 % of Control | Phospho-H3+ Nuclei (Fold-Increase) (TK6 cells [4]; 2.344 μg/ml): 1.00 Fold-Increase | Phospho-H3+ Nuclei (Fold-Increase) (TK6 cells [4]; 3.125 μg/ml): 0.76 Fold-Increase | Phospho-H3+ Nuclei (Fold-Increase) (TK6 cells [4]; 4.6875 μg/ml): 0.67 Fold-Increase | Phospho-H3+ Nuclei (Fold-Increase) (TK6 cells [4]; 6.25 μg/ml): 0.71 Fold-Increase | Phospho-H3+ Nuclei (Fold-Increase) (TK6 cells [4]; 9.375 μg/ml): 0.76 Fold-Increase | Phospho-H3+ Nuclei (Fold-Increase) (TK6 cells [4]; 12.5 μg/ml): 0.65 Fold-Increase | in vitro micronucleus results (TK6 cells [1]): positive | γH2AX Fluorescence (Fold-Increase) (TK6 cells [7]; 2.344 μg/ml): 3.13 Fold-Increase | γH2AX Fluorescence (Fold-Increase) (TK6 cells [7]; 3.125 μg/ml): 4.11 Fold-Increase | γH2AX Fluorescence (Fold-Increase) (TK6 cells [7]; 4.6875 μg/ml): 4.36 Fold-Increase | γH2AX Fluorescence (Fold-Increase) (TK6 cells [7]; 6.25 μg/ml): 4.92 Fold-Increase | γH2AX Fluorescence (Fold-Increase) (TK6 cells [7]; 9.375 μg/ml): 4.79 Fold-Increase | γH2AX Fluorescence (Fold-Increase) (TK6 cells [7]; 12.5 μg/ml): 4.80 Fold-Increase

CC/C(=C(/CC)c1ccc(O)cc1)c1ccc(O)cc1 [diethylstilbestrol]
in vitro micronucleus results (TK6 cells [1]; [8]): positive
